Assays:
DHFR mRNA and protein = assay: DHFR mRNA (real-time PCR) and protein in SkMel-28; format: cell-based, human; conditions: SkMel-28, 50 μM
Description: Data were obtained by real time PCR and compared with the relative expression of DHFR in HeM cells (zero relative gene expression). Zero time represents the level of DHFR in untreated SkMel-28 cells.
cDNA samples (1 μL) were used for real-time PCR in a total volume of 20 μL using SYBR Green Reagent (Applied Biosystems) and specific primers on a 7500 Real Time PCR System of Applied Biosystems. The PCR amplification cycles included denaturation 95° C., 15 min; to activate HotStar Taq DNA polymerase and to minimize primer-dimer contribution), and amplification [over 40-50 cycles including denaturation (94° C.; 30 s), annealing (55° C.; 30 s), and extension (72° C.; 1 min)]. All PCR reactions were performed in triplicate and from at least two independent experiments. Non-RT control and negative control samples (without template) were processed in the same manner. […] Amplification of target gene sequences were compared against serial dilutions of know quantities of their purified cDNA fragments, and normalized to the abundance of the house-keeping gene β-actin.
Protein lysates were prepared from specified cells, separated by SDS-polyacrylamide gel electrophoresis (PAGE), transferred to nitrocellulose membranes, and analyzed by immunoblotting. […] Bound antibodies were detected by chemiluminiscence (ECL Plus, GE Healthcare). […]

[1] = tested on: γ-glutamylcysteine synthetase (GCS) mRNA; assay: GCS mRNA determination in SkMel-28; format: cell-based, human; conditions: SkMel-28 treated with TMECG
Description: Histograms compare the estimated relative levels of the mRNA with respect to that of β-actin. Values represent the number of copies of mRNA per each 1×10^6 copies of β-actin.
cDNA samples (1 μL) were used for real-time PCR in a total volume of 20 μL using SYBR Green Reagent (Applied Biosystems) and specific primers on a 7500 Real Time PCR System of Applied Biosystems. The PCR amplification cycles included denaturation 95° C., 15 min; to activate HotStar Taq DNA polymerase and to minimize primer-dimer contribution), and amplification [over 40-50 cycles including denaturation (94° C.; 30 s), annealing (55° C.; 30 s), and extension (72° C.; 1 min)]. All PCR reactions were performed in triplicate and from at least two independent experiments. Non-RT control and negative control samples (without template) were processed in the same manner. The specificity of the amplification was verified by melting curve analysis for all samples, and occasionally by agarosa gel electrophoresis. Amplification of target gene sequences were compared against serial dilutions of know quantities of their purified cDNA fragments, and normalized to the abundance of the house-keeping gene β-actin.

[2] = tested on: Caco-2 and SkMel-28 cells; assay: Cellular uptake of ECG, TMECG and QM; format: in vitro ADME, human; conditions: 50 μM catechins
Description: Cellular uptake was determined by the difference between the initial concentration of catechin and the calculated at specific times in the cellular medium, and expressed as a percentage of catechin at zero time. The values presented are the mean percentage determined from five independent experiments±SD.
For cellular uptake experiments Caco-2 and SkMel-28 cells were grown until reaching 90% confluence. Then, 20 ml of cellular medium containing 50 μM catechins and 0.2 mM ascorbic acid was added and incubated for 60 h in a CO2 incubator. At specified times 1 ml-aliquots were taken and frozen in liquid N2 until the catechin concentrations were determined by HPLC. Catechins were identified by their characteristic elution times and their concentration calculated with respect to calibration curves of known concentrations of catechins.

Caspase-3 = Caspase-3 colorimetric activity assay; format: cell-based, human; conditions: SkMel-28, 50 μM, 7 days
Description: Cells were treated for 7 days with 50 μM TMECG. Caspase-3 activity was determined in the absence or the presence of […]. The results are expressed as the mean±SD of three cultures.
Caspase-3 activity in the SkMel-28 cells was measured using the caspase-3 colorimetric activity assay kit (Sigma). Briefly, the cells were washed with cold PBS and lysed with cell lysis buffer included in the kit. The cell lysates were centrifuged (10,000 g for 5 min at 4° C.), and the supernatants were collected. Equal amounts of protein (100 μg), 30 μg of colorimetric caspase-3 substrate (acetyl-Asp-Glu-Val-Asp p-Nitroanilide; Ac-[…]-pNA) and assay buffer were added to each reaction mix, which were then incubated for 4 h at 37° C. Caspase-3 activity was determined by measuring the absorbance at 405 nm. One unit of caspase-3 activity was expressed as 1 pmol of pNA formed per hour, and its specific activity was that unit divided by micrograms of protein. Caspase-3 inhibitor ([…]) was used as negative control.

[3] = tested on: Reduced folate carrier (RFC) mRNA; assay: Real-time PCR of RFC expression in SkMel-28; format: cell-based, human; conditions: 50 μM, after 24 h of treatment
Description: Data were obtained by real time PCR and compared with the relative expression of RFC in normal human skin (zero relative gene expression). Zero time represents the level of RFC in untreated SkMel-28 cells.
PolyA+ mRNA from human adult skin was purchased from Invitrogen. SkMel-28 and HEM polyA+ mRNA was extracted from 5×10^6 cells using the Illustra Quick Prep Micro mRNA purification kit (GE Healthcare). mRNA (200 ng) was used to synthesize cDNA using SuperScript First-Strand Synthesis System (Invitrogen). PCR amplification of 2 μL of the cDNA strand generated was carried out in a total volume of 50 μL using an Eppendorf Mastercycler Thermal Cycler. Samples were amplified by 40 cycles at 95° C. (1 min), 62° C. (1 min) and 72° C. (1 min). The amplified PCR products were subjected to electrophoresis in 3% agarose gel and stained with ethidium bromide.
cDNA samples (1 μL) were used for real-time PCR in a total volume of 20 μL using SYBR Green Reagent (Applied Biosystems) and specific primers on a 7500 Real Time PCR System of Applied Biosystems. […] Amplification of target gene sequences were compared against serial dilutions of know quantities of their purified cDNA fragments, and normalized to the abundance of the house-keeping gene β-actin.

SkMel-28 cells = assay: MTT cell proliferation assay, SkMel-28; format: cell-based, human
Description: Four human cancer cells lines (SkMel-28, MCF7, H1264 and Caco-2) were obtained from the American Type Tissue Culture Collection (ATCC) and were maintained in appropriate culture mediums supplemented with 10% fetal calf serum (FCS) and antibiotics, under standard tissue culture conditions (e.g. modified Eagle's medium (MEM) containing 1 mM sodium pyruvate and 10% fetal bovine serum (FES) under 5% CO2/95% air atmosphere.). Cell injury was evaluated by a colorimetric assay for mitochondrial function using the 3-(4,5-dimethylthiazolyl-2)-2,5-diphenyltetrazolium bromide (MTT) cell proliferation assay. For this assay cells were plated in a 96-well plate at a density of 1000 cells/well and grown until they reached 50-60% confluence. Human epidermal melanocytes (HeM) were supplied by Gentaur and were cultured in HAM-F10 medium supplemented with 10% FCS, antibiotics and the human melanocyte growth supplement (Gentaur).
Cell injury was evaluated by a colorimetric assay for mitochondrial function using the 3-(4,5-dimethylthiazolyl-2)-2,5-diphenyltetrazolium bromide (MTT) cell proliferation assay. For this assay cells were plated in a 96-well plate at a density of 1000 cells/well and grown until they reached 30% confluence. Co-treatments of SkMel-28 cells with TMECG and other reagents were carried out by supplementing medium cultures with S-adenosylmethionine (SAM), adenosine or dipyridamole (all from Sigma).

COc1cc(C(=O)O[C@@H]2Cc3c(O)cc(O)cc3O[C@@H]2c2ccc(O)c(O)c2)cc(OC)c1OC [TMECG, 3-O-(3,4,5-trimethoxybenzoyl)-(−)-epicatechin]
DHFR mRNA and protein level (DHFR mRNA and protein): reduced DHFR mRNA and protein to normal levels | GCS mRNA, mean value [1]: 26300 copies per million of copies of β-actin mRNA | cellular uptake / membrane transport [2]: greater than the uptake of its related natural catechin, ECG | caspase-3 activity (Caspase-3): significantly higher caspase-3 activity | reduction in RFC expression [3]: more than 80% | effect of leucovorin co-treatment on growth inhibition (SkMel-28 cells; 100 μM leucovorin, MTX 1 μM or TMECG 50 μM, 3 days): did not | inhibition at 50 µM (SkMel-28 cells; Homo sapiens, SK-MEL-28, 120 h, 50 μM, five days of treatment, read-out: growth of SkMel-28 inhibited): > 60% | IC50 (SkMel-28 cells; Homo sapiens, SK-MEL-28, 144 h, SkMel-28, 6 days of treatment, read-out: IC50 (at 6 days)): 2900 nM | effect of natural and synthetic catechins on SkMel-28 growth (SkMel-28 cells; SkMel-28): highly inhibited | DNA fragmentation (apoptosis) (SkMel-28 cells; SkMel-28, 50 μM, 7 days): visible after treatment | effect of sulfasalazine (RFC inhibitor) on antiproliferative action (SkMel-28 cells; sulfasalazine 0.5 mM, MTX 0.2 μM or TMECG 10 μM, 3 days): enhancing TMECG antiproliferative activity
